One assay deals with BTK (Homo sapiens (Human), UniProt Q06187). As to the kind of experiment: BTK kinase inhibitory assay (ELISA). Format: biochemical. As to conditions: 3 μmol/L ATP. How it is done: (§1) BTK, EGFR, BMX, or ITK Inhibitory Assay Procedure for BTK, BMX, EGFR and ITK Inhibitory Assay:
(§2) Kinase inhibitory activities of compounds were evaluated using the Enzyme-linked immunosorbent assay (ELISA). The kinase enzyme of BTK, BMX, EGFR and ITK were purchased from Carna Bioscience (Kobe, Japan). A total of 10 ng/mL antiphosphotyrosine (PY713) antibody (abcam, Cambridge Science Park, UK) was precoated in 96-well ELISA plates. The kinase enzymes in each reaction well were set to BTK (101.25 ng/mL), BMX (90 ng/mL), EGFR (90 ng/mL) or ITK (120 ng/mL) and incubated with indicated compounds in 1× reaction buffer (50 mmol/L HEPES pH 7.4, 20 mmol/L MgCl2, 0.1 mmol/L MnCl2, 1 mmol/L DTT) containing 20 μmol/L (the final concentration of substrate in ITK reaction was 30 μmol/L) substrate (NH2-ETVYSEVRK-biotin) at 25° C. for 1 h. Then, a total of 3 μmol/L ATP was added and the reaction was continued for 2 hrs. The products of reaction were transferred into 96-well ELISA plates containing antibody and incubated at 25° C. for 30 min. After incubation, the wells were washed with PBS and then incubated with horseradish peroxidase […]-conjugated streptavidin. The wells were visualized using 3,3′,5,5′-tetramethylbenzidine (TMB), and chromogenic reaction was ended with 2 mol/L H2SO4, the absorbance was read with a multimode plate reader (PerkinElmer, USA) at 450 nm. IC50 values and curve fits were obtained using Prism (GraphPad Software).
A general note: In an ELISA, binding on a coated surface is turned into a signal by an enzyme label.

In a further assay the target is ITK (Homo sapiens (Human), UniProt Q08881). As to the kind of experiment: ITK kinase inhibitory assay (ELISA). Format: biochemical. As to conditions: for IC50: ELISA, 3 μmol/L ATP; for Selectivity Ratio (BTK and ITK): ITK IC50 relative to BTK IC50. How it is done: as §1, §2
The target of the next assay is EGFR (Homo sapiens (Human), UniProt P00533). The experiment in a line: EGFR kinase inhibitory assay (ELISA). The following applies: for Selectivity Ratio (BTK and EGFR): EGFR IC50 relative to BTK IC50; for IC50: ELISA, 3 μmol/L ATP. It is filed as biochemical. How it is done: as §1, §2
For another assay, the target named is BMX (Homo sapiens (Human), UniProt P51813). The experiment in a line: BMX kinase inhibitory assay (ELISA). It is filed as biochemical. The following applies: for Selectivity Ratio (BTK and BMX): BMX IC50 relative to BTK IC50; for IC50: ELISA, 3 μmol/L ATP. How it is done:
as §1, §2

The test system of another assay is TMD8. As to the kind of experiment: Cell antiproliferative activity assay (CellTiter-Glo), TMD8. Format: cell-based. The following applies: read-out: Cell Growth IC50 (nM) TMD8. Here is the method:
(§3) Cell Antiproliferative Activity Assay
(§4) Cell antiproliferative activity was evaluated by the CellTiter-Glo (Promega, USA) assay. Make 1000× compounds solution in DMSO, add 1 μl 1000× compounds to […] growth medium to make 20× compounds. Dilute cell suspensions in growth medium to desired density and 95 μl were taken to 96-well plate. Add 5 μl 20× compounds into 96-well plate according to the plate map. Final DMSO concentration in each well was 0.1%. Then the cell was incubated at 37° C., 5% CO2 for 72 hs. Equilibrate the assay plate to room temperature before measurement. Add 20 μl of CellTiter-Glo© Reagent into each well. Mix contents for 2 minutes on an orbital shaker to induce cell lysis. Incubate at room temperature for 10 minutes to stabilize luminescent signal. Record luminescence using EnVision Multilabel Reader (PerkinElmer). Cell viability (CV %) was calculated relative to vehicle (DMSO) treated control wells using following formula: Cell viability (%)=(RLU compound−RLU blank)/(RLU control−RLU blank)*100%. The IC50 values were calculated using GraphPad Prism 6.0 software, fitting to a 4-parameter equation to generate concentration response curves. All assays were conducted with three parallel samples and three repetitions.
(ATP-based viability assays read luminescence as a measure of living cells.)

In the next assay the test system is 293T. The experiment in a line: Cell antiproliferative activity assay (CellTiter-Glo), 293T. The following applies: 72 hs, read-out: Cell Growth IC50 (nM) 293T. It is filed as cell-based. How it is done:
as §3, §4

Like-named read-outs stand apart in the source and are kept apart here.

BMX, sequence (P51813 whole entry): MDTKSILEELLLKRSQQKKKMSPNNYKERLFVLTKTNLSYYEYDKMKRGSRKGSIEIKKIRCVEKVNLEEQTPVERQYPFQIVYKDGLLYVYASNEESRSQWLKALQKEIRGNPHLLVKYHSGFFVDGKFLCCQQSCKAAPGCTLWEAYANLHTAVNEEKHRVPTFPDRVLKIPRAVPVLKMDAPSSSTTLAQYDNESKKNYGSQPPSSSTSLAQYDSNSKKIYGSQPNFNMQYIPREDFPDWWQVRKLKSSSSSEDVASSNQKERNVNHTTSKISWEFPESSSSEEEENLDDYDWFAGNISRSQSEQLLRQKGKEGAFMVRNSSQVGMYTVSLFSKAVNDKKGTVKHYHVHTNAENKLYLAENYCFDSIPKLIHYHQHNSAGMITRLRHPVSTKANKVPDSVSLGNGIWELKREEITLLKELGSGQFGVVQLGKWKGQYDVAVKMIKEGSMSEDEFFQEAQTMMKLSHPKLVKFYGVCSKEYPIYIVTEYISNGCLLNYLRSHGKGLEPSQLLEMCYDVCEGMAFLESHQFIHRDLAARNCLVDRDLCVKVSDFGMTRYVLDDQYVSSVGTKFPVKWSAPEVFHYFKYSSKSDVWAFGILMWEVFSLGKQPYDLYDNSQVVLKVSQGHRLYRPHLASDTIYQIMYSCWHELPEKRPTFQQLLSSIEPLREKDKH
ITK, sequence (Q08881 whole entry): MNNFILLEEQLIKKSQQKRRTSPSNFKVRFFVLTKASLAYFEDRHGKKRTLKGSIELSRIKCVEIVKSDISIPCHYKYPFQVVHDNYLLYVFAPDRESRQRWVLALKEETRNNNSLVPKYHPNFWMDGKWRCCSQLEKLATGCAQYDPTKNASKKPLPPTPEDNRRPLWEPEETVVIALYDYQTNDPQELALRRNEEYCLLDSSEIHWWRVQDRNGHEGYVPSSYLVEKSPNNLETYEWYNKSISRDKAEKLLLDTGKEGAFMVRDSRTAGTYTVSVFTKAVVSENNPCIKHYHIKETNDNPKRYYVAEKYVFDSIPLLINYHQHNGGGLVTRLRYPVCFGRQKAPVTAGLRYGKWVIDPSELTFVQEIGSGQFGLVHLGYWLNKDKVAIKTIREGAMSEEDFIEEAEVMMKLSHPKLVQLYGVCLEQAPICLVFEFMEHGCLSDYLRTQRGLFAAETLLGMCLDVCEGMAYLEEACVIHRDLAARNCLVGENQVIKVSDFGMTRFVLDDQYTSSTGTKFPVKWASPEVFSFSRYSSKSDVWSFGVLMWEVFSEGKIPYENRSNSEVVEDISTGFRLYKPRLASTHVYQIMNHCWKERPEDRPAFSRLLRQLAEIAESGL
BTK, sequence (Q06187 whole entry): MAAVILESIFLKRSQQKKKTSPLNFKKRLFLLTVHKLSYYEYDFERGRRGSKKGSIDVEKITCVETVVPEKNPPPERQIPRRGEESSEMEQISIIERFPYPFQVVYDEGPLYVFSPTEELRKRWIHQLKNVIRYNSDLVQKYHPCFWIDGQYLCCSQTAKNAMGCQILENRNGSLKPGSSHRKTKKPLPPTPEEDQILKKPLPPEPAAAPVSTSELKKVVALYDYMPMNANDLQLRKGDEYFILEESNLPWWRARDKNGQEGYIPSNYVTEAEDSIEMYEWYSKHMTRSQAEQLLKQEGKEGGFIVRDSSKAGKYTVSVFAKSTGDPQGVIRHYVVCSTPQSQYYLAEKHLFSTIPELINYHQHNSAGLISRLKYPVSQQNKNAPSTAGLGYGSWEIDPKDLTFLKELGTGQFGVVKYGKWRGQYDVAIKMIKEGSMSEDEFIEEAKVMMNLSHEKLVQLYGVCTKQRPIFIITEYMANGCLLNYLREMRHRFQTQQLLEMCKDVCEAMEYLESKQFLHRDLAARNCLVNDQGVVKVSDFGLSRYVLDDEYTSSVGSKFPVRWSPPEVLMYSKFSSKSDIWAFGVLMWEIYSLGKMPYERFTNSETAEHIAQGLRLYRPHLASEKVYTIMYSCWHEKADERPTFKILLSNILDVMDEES
EGFR, sequence (P00533 25-1210): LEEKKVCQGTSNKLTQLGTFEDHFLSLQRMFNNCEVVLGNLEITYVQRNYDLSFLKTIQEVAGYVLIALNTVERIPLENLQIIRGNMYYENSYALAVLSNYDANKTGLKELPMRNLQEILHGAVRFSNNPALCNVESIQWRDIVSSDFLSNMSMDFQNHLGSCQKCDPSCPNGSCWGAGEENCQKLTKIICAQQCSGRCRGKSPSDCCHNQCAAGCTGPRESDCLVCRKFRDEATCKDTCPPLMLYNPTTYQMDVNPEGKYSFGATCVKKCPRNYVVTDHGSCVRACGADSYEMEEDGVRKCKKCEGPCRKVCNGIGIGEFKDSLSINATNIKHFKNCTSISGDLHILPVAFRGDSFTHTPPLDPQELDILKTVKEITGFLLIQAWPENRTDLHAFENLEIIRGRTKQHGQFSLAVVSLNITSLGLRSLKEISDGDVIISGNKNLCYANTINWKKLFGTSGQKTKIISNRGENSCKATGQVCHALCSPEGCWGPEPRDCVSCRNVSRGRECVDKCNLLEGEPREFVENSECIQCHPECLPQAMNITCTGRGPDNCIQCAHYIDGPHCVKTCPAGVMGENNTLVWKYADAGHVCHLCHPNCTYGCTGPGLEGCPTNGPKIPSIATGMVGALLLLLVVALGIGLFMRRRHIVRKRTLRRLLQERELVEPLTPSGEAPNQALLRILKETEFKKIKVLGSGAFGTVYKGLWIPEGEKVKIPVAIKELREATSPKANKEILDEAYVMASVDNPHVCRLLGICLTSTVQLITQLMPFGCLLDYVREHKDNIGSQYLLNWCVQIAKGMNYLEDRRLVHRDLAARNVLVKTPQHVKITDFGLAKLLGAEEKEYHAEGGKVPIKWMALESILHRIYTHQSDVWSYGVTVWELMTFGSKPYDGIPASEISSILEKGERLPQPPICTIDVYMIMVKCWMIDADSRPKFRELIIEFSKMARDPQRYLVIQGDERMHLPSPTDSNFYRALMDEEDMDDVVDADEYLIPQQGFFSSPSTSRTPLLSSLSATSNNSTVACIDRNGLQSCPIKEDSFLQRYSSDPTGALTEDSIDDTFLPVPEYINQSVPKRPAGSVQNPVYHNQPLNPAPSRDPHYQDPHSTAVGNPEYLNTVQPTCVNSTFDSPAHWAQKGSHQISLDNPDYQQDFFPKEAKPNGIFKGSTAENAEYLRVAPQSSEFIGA

Regarding `CC#CC(=O)N1CCC(C2CCNn3c2nc(-c2ccc(Oc4ccccc4)cc2)c3C(N)=O)CC1` (stereo not shown) [Example 2, 8-[1-(1-Oxo-but-2-ynyl)-piperidin-4-yl]-2-(4-phenoxy-phenyl)-5,6,7,8-tetrahydro-imidazo[1,2-b]pyridazine-3-carboxamide], the IC50 against BTK was found to be 76.4 nM.

In the case of `C=CC(=O)Nc1ccccc1C1CCNn2c1nc(-c1ccc(Oc3ccccc3)cc1)c2C(N)=O` (stereo not shown) [Example 22, 8-(2-acrylamidophenyl)-2-(4-phenoxyphenyl)-5,6,7,8-tetrahydroimidazo[1,2-b]pyridazine-3-carboxamide], at ITK, the IC50 stood at 27900 nM; the “Selectivity Ratio (BTK and ITK)” value is recorded as 5160.6. At EGFR, the “Selectivity Ratio (BTK and EGFR)” value was found to be 3.05; the concentration for half-maximal inhibition (IC50) is 16.5 nM. This compound showed an IC50 on BTK of 5.4 nM. Besides, at BMX, the “Selectivity Ratio (BTK and BMX)” value is given as 11.94; half-maximal inhibition (IC50) required 64.5 nM.

Consider `C=CC(=O)N1CCC(C2CCNn3c2nc(-c2ccc(Oc4ccccc4)cc2)c3C(N)=O)C1` (stereo not shown) [Example 21, 8-(1-acryloylpyrrolidin-3-yl)-2-(4-phenoxyphenyl)-5,6,7,8-tetrahydroimidazo[1,2-b]pyridazine-3-carboxamide], for which 132 nM corresponded to half-maximal inhibition at BTK (IC50).

`C=CC(=O)N1CCC(C2CCNn3c2nc(-c2ccc(Oc4ccc(F)cc4)cc2)c3C(N)=O)CC1` (stereo not shown) [Example 12, 8-(1-acryloylpiperidin-4-yl)-2-(4-(4-fluorophenoxy)phenyl)-5,6,7,8-tetrahydroimidazo[1,2-b]pyridazine-3-carboxamide] yielded an IC50 against BTK of 49.4 nM.

`COc1ccc(Oc2ccc(-c3nc4n(c3C(N)=O)NCCC4C3CCN(C(=O)/C=C/C(F)(F)F)CC3)cc2)cc1` (stereo not shown) [Example 17, (E)-2-(4-(4-methoxyphenoxy)phenyl)-8-(1-(4,4,4-trifluorobut-2-enoyl)piperidin-4-yl)-5,6,7,8-tetrahydroimidazo[1,2-b]pyridazine-3-carboxamide] displayed an IC50 against BTK of 212 nM.

As for `N#C/C(=C\C1CC1)C(=O)N1CCC(C2CCNn3c2nc(-c2ccc(Oc4ccccc4)cc2)c3C(N)=O)CC1` (stereo not shown) [Example 8, 8-[1-(2-Cyano-3-cyclopropyl-acryloyl)-piperidin-4-yl]-2-(4-phenoxy-phenyl)-5,6,7,8-tetrahydro-imidazo[1,2-b]pyridazine-3-carboxamide], the IC50 at BTK turned out to be 285 nM.

In the case of `C=CC(=O)N1CC(C2CCNn3c2nc(-c2ccc(Oc4ccccc4)cc2)c3C(N)=O)C1` (stereo not shown) [Example 18, 8-(1-acryloylazetidin-3-yl)-2-(4-phenoxyphenyl)-5,6,7,8-tetrahydroimidazo[1,2-b]pyridazine-3-carboxamide], the midpoint of inhibition against BTK, the IC50, lay at 37.4 nM.

On BTK, `NC(=O)c1c(-c2ccc(Oc3ccc(F)cc3)cc2)nc2n1NCCC2C1CCN(C(=O)/C=C/C(F)(F)F)CC1` (stereo not shown) [Example 14, (E)-2-(4-(4-fluorophenoxy)phenyl)-8-(1-(4,4,4-trifluorobut-2-enoyl)piperidin-4-yl)-5,6,7,8-tetrahydroimidazo[1,2-b]pyridazine-3-carboxamide] gave an IC50 of 61.5 nM.

Consider `C=CC(=O)N1CCC(C2CCn3c2nc(-c2ccc(Oc4ccccc4)c(OC)c2)c3C(N)=O)CC1` (stereo not shown) [Example 28, 7-(1-acryloylpiperidin-4-yl)-2-(3-methoxy-4-phenoxyphenyl)-6,7-dihydro-5H-pyrrolo[1,2-a]imidazole-3-carboxamide], for which, on ITK, the IC50 is above 30000 nM; the “Selectivity Ratio (BTK and ITK)” value is above 2803.7. At EGFR, the “Selectivity Ratio (BTK and EGFR)” value is reported as 35.66; the concentration for half-maximal inhibition (IC50) was found to be 382 nM. At BTK, this compound returned an IC50 of 10.7 nM. Further, at BMX, the “Selectivity Ratio (BTK and BMX)” value amounted to 7.51; the IC50 came to 80.3 nM.

As to `CC#CC(=O)N1CCC(C2CCNn3c2nc(-c2ccc(Oc4ccc(OC)cc4)cc2)c3C(N)=O)CC1` (stereo not shown) [Example 16, 8-(1-(but-2-ynoyl)piperidin-4-yl)-2-(4-(4-methoxyphenoxy)phenyl)-5,6,7,8-tetrahydroimidazo[1,2-b]pyridazine-3-carboxamide], it took 778 nM to reach half-maximal inhibition against BTK (IC50).

Take `C=CC(=O)N1CCC(C2CCNn3c2nc(-c2ccc(Oc4ccccc4)cc2)c3C(N)=O)CC1` (single isomer, unassigned) [1b (peak 2)]: the IC50 is above 30000 nM against ITK; 170 nM against EGFR; 28.9 nM against BTK; 53.9 nM against BMX; 102 nM in the assay on TMD8 (TMD8, 72 hs); 5240 nM in the assay on 293T. Also, on ITK, the “Selectivity Ratio (BTK and ITK)” value is given as above 1038. For the same compound, on EGFR, the “Selectivity Ratio (BTK and EGFR)” value was 5.87. Moreover, the “Selectivity Ratio (BTK and BMX)” value at BMX came out at 1.86.

The compound `C=CC(=O)N1CCC(C2CCNn3c2nc(-c2ccc(Oc4ccccc4)c(OC)c2)c3C(N)=O)CC1` (stereo not shown) [Example 29, 8-(1-acryloylpiperidin-4-yl)-2-(3-methoxy-4-phenoxyphenyl)-5,6,7,8-tetrahydroimidazo[1,2-b]pyridazine-3-carboxamide] came in with an IC50 against BTK of 46.5 nM.

For `CC#CC(=O)N1CCC(C2CCNn3c2nc(-c2ccc(Oc4ccc(F)cc4)cc2)c3C(N)=O)CC1` (stereo not shown) [Example 13, 8-(1-(but-2-ynoyl)piperidin-4-yl)-2-(4-(4-fluorophenoxy)phenyl)-5,6,7,8-tetrahydroimidazo[1,2-b]pyridazine-3-carboxamide], on BTK, half-maximal inhibition (IC50) required 122 nM.

In the case of `C=CC(=O)N1CCC(C2CCn3c2nc(-c2ccc(Oc4ccccc4)cc2)c3C(N)=O)CC1` (stereo not shown) [Example 26, 7-(1-acryloylpiperidin-4-yl)-2-(4-phenoxyphenyl)-6,7-dihydro-5H-pyrrolo[1,2-a]imidazole-3-carboxamide], on ITK, the midpoint of inhibition, the IC50, lay at 4660 nM; the “Selectivity Ratio (BTK and ITK)” value came out at 555.2. Moreover, on EGFR, the “Selectivity Ratio (BTK and EGFR)” value is 9.75; inhibition was half-maximal at 81.9 nM (IC50). At BTK, the IC50 was 8.4 nM. Besides, at BMX, the “Selectivity Ratio (BTK and BMX)” value is listed as 3.70; half-maximal inhibition (IC50) was put at 31.1 nM.

With `C=CC(=O)N1CCC(C2CCNn3c2nc(-c2ccc(Oc4ccccc4)cc2)c3C(N)=O)CC1` (stereo not shown) [Example 1, 8-(1-acryloylpiperidin-4-yl)-2-(4-phenoxyphenyl)-5,6,7,8-tetrahydroimidazo[1,2-b]pyridazine-3-carboxamide], the IC50 against ITK worked out at 13600 nM; on EGFR, 89.6 nM; on BTK, 4.6 nM; against BMX, 26.7 nM; in the assay with TMD8 (Homo sapiens, TMD8, TMD8, 72 hs) it was 12.3 nM; with 293T (Homo sapiens, HEK-293T), 573000 nM. The “Selectivity Ratio (BTK and ITK)” value on ITK is 2945. The “Selectivity Ratio (BTK and EGFR)” value on EGFR amounted to 19.48. Moreover, the “Selectivity Ratio (BTK and BMX)” value on BMX is given as 5.80.

`C=CC(=O)N1CCC(C2CCNn3c2nc(-c2ccc(OC)cc2)c3C(N)=O)CC1` (stereo not shown) [Example 27, 8-(1-acryloylpiperidin-4-yl)-2-(4-methoxyphenyl)-5,6,7,8-tetrahydroimidazo[1,2-b]pyridazine-3-carboxamide] yielded an IC50 at BTK of 242 nM.

Turning to `C=CC(=O)N1CCC(C2CCNn3c2nc(-c2ccc(Oc4ccc(OC)cc4)cc2)c3C(N)=O)CC1` (stereo not shown) [Example 15, 8-(1-acryloylpiperidin-4-yl)-2-(4-(4-methoxyphenoxy)phenyl)-5,6,7,8-tetrahydroimidazo[1,2-b]pyridazine-3-carboxamide], the IC50 on BTK is 42.6 nM.

Consider `CN(C)C/C=C/C(=O)N1CCC(C2CCNn3c2nc(-c2ccc(Oc4ccccc4)cc2)c3C(N)=O)CC1` (stereo not shown) [Example 25, (E)-8-(1-(4-(dimethylamino)but-2-enoyl)piperidin-4-yl)-2-(4-phenoxyphenyl)-5,6,7,8-tetrahydroimidazo[1,2-b]pyridazine-3-carboxamide], for which inhibition against BTK was half-maximal at 185 nM (IC50).

For orientation: IC50 means the concentration needed to halve the response being measured.

For the origin of these results see patent US12552798B2, “Substituted imidazolecarboxamide as Bruton's tyrosine kinase inhibitors” (Henan Zhiwei Biomedicine Co., Ltd., priority 2019, dated 2026).
